The results in this text go back to US9695127B2, “Compounds for treating HIV and methods for using the compounds” (University of Pittsburgh—Of the Commonwealth System of …, priority 2012, dated 2017).

The test system of one test is wild-type HIV-1 NL4-3. Description: HIV-1 replication in U87MG cells (p24 ELISA). The class given is cell-based. Conditions: 3 μM, U87MG cells. The source says:
In particular disclosed embodiments, the compound may be used to block Nef-dependent HIV replication and infectivity. FIG. 7 illustrates the chemical structures of the compounds identified by the Nef:Hck HTS campaign and subsequently shown to block Nef-dependent enhancement of HIV-1 replication in two different cell lines are shown, along with the IC50 values for each compound against Hck alone vs. the Nef:Hck complex. FIG. 8 illustrates results concerning HIV replication. […] Viral output for the DMSO-treated control cultures was consistently greater than 100-fold over the HIV input, typically ranging from 9,000-12,000 p24 equivalents/ml. Virus replication was assessed by p24 ELISA after 4 days (U87MG) or 9 days (CEM-T4). Data are expressed as the mean percent inhibition as compared to control cultures incubated with the carrier solvent (DMSO)±S.E.M. (n=4). Results of replication and cytotoxicity experiments with all certain hit compounds from the primary screen are shown in FIG. 3 and FIG. 4. FIG. 9 concerns infectivity assays. Compounds (3 μM) were added to cultures of the reporter cell line TZM-b1 followed by infection with either wild-type or Nef-defective (ΔNef) HIV NL4-3 in 96-well plates. After 48 hours, relative virus infectivity was assessed as luciferase production in infected cells. Results are plotted as the mean percent of HIV-1 infectivity observed in control cells incubated with the carrier solvent DMSO±S.E.M. (n=3). In the absence of Nef, infectivity is reduced by about 50% (ΔNef; dashed line shown for reference).
(§1) HIV assays: Viral stocks were prepared by transfection of 293T cells (ATCC) with wild-type and Nef-defective (ΔNef) proviral genomes (NL4—3 strain) and amplified in the T-cell line, MT2 (NIH AIDS Research and Reference Reagent Program). Viral replication was assessed in the U87MG astroglioma cell line engineered to express the HIV-1 co-receptors CD4 and CXCR4 or in the T-lymphoblast cell line, CEM-T4. Both the U87 MG and CEM-T4 cell lines support HIV-1 replication in a Nef-dependent manner, and were obtained from the NM AIDS Research and Reference Reagent Program. Compounds were solubilized in DMSO, and added to the cell culture medium 1 h prior to infection with HIV. Viral replication was monitored for either 4 days (U87MG) or 9 days (CEM-T4) by measuring p24 Gag protein levels in the culture supernatant using standard ELISA-based techniques. HIV-1 infectivity was measured using the reporter cell line, TZM-b1 (NM AIDS Research and Reference Reagent Program). Cells were grown in 96-well plates (2.5×10^4) 8 h prior to virus infection to permit adherence. Compounds were pre-incubated with wild-type HIV-1 for 4 h prior to addition to the cells in a final volume of 200 μl. After 48 h at 37° C., the cells were washed with PBS and lysed in luciferase lysis buffer (Promega) by rocking for 15 min Lysates (40 μl) were transferred to white 96-well plates and 50 μl luciferase reagent (Promega) was injected into each well. Readings were recorded with a delay time of 2 sec and an integration period of 10 sec.
(ELISA stands for enzyme-linked immunosorbent assay.)
Turning to `COc1ccc(-c2nn(-c3ccccn3)c(O)c2CCc2ccc(F)cc2)cc1` [JV-1-80], the “REPLICATION @ 3 μM % Inhibition vs. DMSO control” value was “Toxic”.

As for `N=C(N)n1nc(C2CC2)c(CCc2ccc(F)cc2)c1O` [JV-1-89], the “REPLICATION @ 3 μM % Inhibition vs. DMSO control” value came out at 56.1%.

The same test, now with this note: Human immunodeficiency virus 1, NL43, U-87 MG, 96 h, read-out: REPLICATION @ 3 μM % Inhibition vs. DMSO control.
The inhibition is the relative decrease from the control value, in per cent. Take `COc1ccc(-c2nn(C3=NCCN3)c(O)c2CCc2ccc(F)cc2)cc1` [JV-1-74-2]: the inhibition at 3 µM came to 46.8%. With `Oc1[nH]nc(-c2ccc(F)cc2)c1/N=N/c1cccnc1` [JZ-1-110-1], the inhibition at 3 µM came to 0%. On to `NC(=O)n1nc(-c2ccc(F)cc2)c(/N=N/c2cccnc2)c1O` [JZ-1-101], for which the inhibition at 3 µM turned out to be 0%. As to `COc1ccc(-c2nn(C(=N)N)c(O)c2CCc2ccc(F)cc2)cc1` [JV-1-74-1], the inhibition at 3 µM worked out at 27.8%. With `COc1ccc(-c2n[nH]c(O)c2CCc2cccc(Cl)c2)cc1` [JV-1-59-1], the inhibition at 3 µM was found to be 30.1%.

The subject of another test is HIV-1 NL4-3. Description: HIV-1 infectivity in TZM-b1 reporter cells (luciferase). The class given is cell-based. Conditions: 3 μM, TZM-b1 reporter cells. As for the experimental part: Compounds (1 μM) shown in FIG. 7 were added to cultures of U87MG and CEM-T4 cells in 96-well plates, followed by infection with wild-type HIV-1 NL4-3 (50 pg p24 equivalents/ml) 1 hour later. […] Virus replication was assessed by p24 ELISA after 4 days (U87MG) or 9 days (CEM-T4). Data are expressed as the mean percent inhibition as compared to control cultures incubated with the carrier solvent (DMSO)±S.E.M. (n=4). […] FIG. 9 concerns infectivity assays. Compounds (3 μM) were added to cultures of the reporter cell line TZM-b1 followed by infection with either wild-type or Nef-defective (ΔNef) HIV NL4-3 in 96-well plates. After 48 hours, relative virus infectivity was assessed as luciferase production in infected cells. […]
as §1, with “Both the U87 MG and CEM-T4 cell lines support HIV-1 replication in a Nef-dependent manner, and were obtained from the NM AIDS Research and Reference Reagent Program.” left out
As for `Cc1nn(C(=N)N)c(O)c1CCc1ccc(F)cc1` [JV-1-87], the “INFECTIVITY @ 3 μM % Inhibition vs. DMSO control” value is 0.0%.

Regarding `COc1ccc(-c2nn(-c3ccccn3)c(O)c2CCc2ccc(F)cc2)cc1` [JV-1-80], the “INFECTIVITY @ 3 μM % Inhibition vs. DMSO control” value is on record as “Toxic”. As for `N=C(N)n1nc(C2CC2)c(CCc2ccc(F)cc2)c1O` [JV-1-89], the “INFECTIVITY @ 3 μM % Inhibition vs. DMSO control” value came out at 28.0%. On the same count and under the same terms, as for `COc1ccc(-c2nn(C(N)=S)c(O)c2CCc2ccc(F)cc2)cc1` [JV-1-94], the figure is 0.0%.

The test is the same for the next values; noted with them: Human immunodeficiency virus 1, NL43, TZM-b1, 48 h, read-out: INFECTIVITY @ 3 μM % Inhibition vs. DMSO control.
`N=C(N1CCOCC1)n1nc(-c2ccc(C(F)(F)F)cc2)c(Cc2ccc(F)cc2)c1O` [JZ-1-180]: the inhibition at 3 µM was 0%. Take `COc1cccc(Cc2c(-c3ccc(F)cc3)nn(C(=N)N)c2O)c1` [EAF-1-22]: the inhibition at 3 µM came to 0%. Regarding `COc1ccc(-c2nn(-c3ccccc3)c(OC)c2/C=C/c2ccccc2)cc1` [JZ-1-145-1], the inhibition at 3 µM was 0%.

In the case of `COc1ccc(-c2nn(C3=NCCN3)c(O)c2CCc2ccc(F)cc2)cc1` [JV-1-74-2], the inhibition at 3 µM is 36.7%. On the same count and under the same terms, as for `NC(=S)n1nc(-c2ccc([N+](=O)[O-])cc2)cc1O` [JZ-1-94], the figure is 0%; as for `Oc1c(Cc2ccc(F)cc2)c(-c2ccc(F)cc2)nn1C1=NCCN1` [JZ-1-176], 7.7%.

`COc1ccccc1/N=N/c1c(-c2ccc([N+](=O)[O-])cc2)nn(C(N)=S)c1O` [JZ-1-49]: the inhibition at 3 µM was found to be 0%.

For `COc1ccc(-c2nn(-c3ccccc3)c(OC)c2/C=C/c2cccc(F)c2)cc1` [JZ-1-146-1], the inhibition at 3 µM came to 0%.

As for `N=C(N)n1nc(-c2ccc(F)cc2)c(Cc2ccc(F)cc2)c1O` [JZ-1-175], the inhibition at 3 µM was 0%. On the same count and under the same terms, the same measure for `COc1ccc(-c2nn(-c3ccccc3)c(OC)c2CCc2ccc(F)cc2)cc1` [JV-1-81]: 19.7%; for `Oc1[nH]nc(-c2ccc(F)cc2)c1/N=N/c1cccnc1` [JZ-1-110-1]: 3.3%. On the same count and under the same terms, the same measure for `COc1ccc(-c2nn(C(=N)N)c(O)c2Cc2cccc(Cl)c2)cc1` [DD-1-27]: 0%. The same measure, in the same setting: as for `NC(=O)n1nc(-c2ccc(F)cc2)c(/N=N/c2cccnc2)c1O` [JZ-1-101], the figure is 0%; as for `NC(=S)n1nc(-c2ccc([N+](=O)[O-])cc2)c(/N=N/c2ccccc2Cl)c1O` [KM-1-48], 19.3%. In the case of `COc1ccc(/N=N/c2c(-c3ccc([N+](=O)[O-])cc3)n[nH]c2O)cc1` [JZ-1-50], the inhibition at 3 µM turned out to be 28.9%. Same read-out and setting: as for `COc1ccc(-c2nn(C(=N)N3CCOCC3)c(O)c2CCc2ccc(F)cc2)cc1` [JZ-1-154-2-2], the figure is 0%; as for `O=[N+]([O-])c1ccc(-c2nn(C3=NCCN3)c(O)c2Cc2ccc(F)cc2)cc1` [JZ-1-171], 0%; as for `N=C(N)n1nc(-c2ccc(C(F)(F)F)cc2)c(Cc2ccc(F)cc2)c1O` [JZ-1-177], 0%.

Regarding `Oc1c(Cc2cccc(Cl)c2)c(-c2ccc(C(F)(F)F)cc2)nn1C1=NCCN1` [JV-2-14], the inhibition at 3 µM stood at 54.7%.

Consider `COc1ccc(-c2nn(C(=N)N)c(O)c2CCc2ccc(F)cc2)cc1` [JV-1-74-1], for which the inhibition at 3 µM amounted to 0%. Still for that read-out and setting: as for `N=C(N)n1nc(-c2ccc([N+](=O)[O-])cc2)c(Cc2cccc(Cl)c2)c1O` [JV-2-10], the figure is 3%; as for `COc1ccc(-c2nn(C(=N)N)c(O)c2CCc2cccc(OC)c2)cc1` [JV-1-67-1], 0%. On to `O=[N+]([O-])c1ccc(-c2n[nH]c(O)c2Cc2ccc(F)cc2)cc1` [JV-2-13], for which the inhibition at 3 µM turned out to be 1.7%. Still for that read-out and setting: the same measure for `Oc1[nH]nc(-c2ccc(C(F)(F)F)cc2)c1Cc1ccc(F)cc1` [JZ-1-179-2]: 0%; for `COc1ccc(-c2n[nH]c(O)c2CCc2cccc(Cl)c2)cc1` [JV-1-59-1]: 0%.

`Cc1c(Cc2cccc(Cl)c2)c(-c2ccccc2)nn1C(=N)N` [DD-1-26]: the inhibition at 3 µM came to 0%. For the compound `Oc1c(Cc2cccc(Cl)c2)c(-c2ccc(F)cc2)nn1C1=NCCN1` [DD-1-22], the inhibition at 3 µM was determined as 0%. Consider `NC(=S)n1nc(-c2ccc(C(F)(F)F)cc2)c(/N=N/c2cccc(Cl)c2)c1O` [JZ-1-64], for which the inhibition at 3 µM was determined as 26.5%. With `Nc1c(Cc2cccc(Cl)c2)c(-c2ccc(F)cc2)nn1C1=NCCN1` [DD-1-30], the inhibition at 3 µM was found to be 0%.

As to `Oc1[nH]nc(-c2ccccc2)c1/N=N/c1ccccc1` [JZ-1-58-2], the inhibition at 3 µM is 1.7%.

As to `N=C(N)n1nc(-c2ccc([N+](=O)[O-])cc2)cc1O` [JV-1-62-2-2], the inhibition at 3 µM amounted to 0%.

Turning to `N=C(N)n1nc(-c2ccc(C(F)(F)F)cc2)c(Cc2cccc(Cl)c2)c1O` [JV-2-9-1], the inhibition at 3 µM came out at 0%. For `COc1ccc(-c2nn(C3=NCCN3)c(O)c2CCc2cccc(OC)c2)cc1` [JV-1-71-1], the inhibition at 3 µM stood at 25.2%.

Turning to `NC(=S)n1nc(-c2ccccc2)c(/N=N/c2ccccc2)c1O` [JZ-1-58-3], the inhibition at 3 µM worked out at 7.3%. As for `N=C(N)n1nc(-c2ccccc2)c(Cc2cccc(Cl)c2)c1N` [JV-2-16], the inhibition at 3 µM came out at 0%. For the compound `N=C(N)n1nc(-c2ccc(F)cc2)c(Cc2cccc(Cl)c2)c1O` [DD-1-21], the inhibition at 3 µM was found to be 0%. On to `N=C(N)n1nc(-c2ccc(F)cc2)c(Cc2cccc(Cl)c2)c1N` [JV-2-19], for which the inhibition at 3 µM worked out at 0%.

As to `COc1ccc(-c2nn(C(N)=S)c(O)c2/N=N/c2cccc(Cl)c2)cc1` [JZ-1-62], the inhibition at 3 µM turned out to be 9.3%. For `COc1cccc(Cc2c(-c3ccc([N+](=O)[O-])cc3)nn(C(=N)N)c2O)c1` [EAF-1-21], the inhibition at 3 µM turned out to be 0%. The same measure, in the same setting: as for `COc1ccc(-c2n[nH]c(O)c2CCc2ccc(F)cc2)cc1` [JV-1-75-1], the figure is 0%; as for `COc1cccc(/N=N/c2c(-c3ccc([N+](=O)[O-])cc3)nn(C(N)=S)c2O)c1` [JZ-1-56], 0%. Take `C(=C\c1c[nH]nc1-c1ccccc1)/c1ccccc1` [Vit-3f]: the inhibition at 3 µM stood at 0%.

As to `NC(=S)n1nc(-c2ccc(C(F)(F)F)cc2)c(Cc2cccc(Cl)c2)c1O` [JV-2-12], the inhibition at 3 µM was 41.7%.
